GI50 and TGI data for 11 compounds are collected here from PubChem BioAssay (NCI).

Each structure is given as a SMILES string.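 Assay format: 96-well plates, 48-hour exposure. At the GI50, growth is halved. TGI: concentration producing complete growth inhibition.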

Holding throughout (experiment): DTP human tumour cell line panel, 48 h
For experiment [1], the system named is ACHN renal.
Experiment [2] concerns HS 578T breast.
Experiment [3] concerns IGROV1 ovarian.
Experiment [4] concerns KM12 colon.
Experiment [5] deals with MALME-3M melanoma.
Experiment [6] has as its system NCI-H460 lung.
Experiment [7] has as its system OVCAR-3 ovarian.
Experiment [8] has as its system OVCAR-8 ovarian.
The subject of experiment [9] is RXF 393 renal.
Experiment [10] concerns SNB-75 CNS.

What is called GI50 is the concentration that inhibits growth by half. What is called TGI is the concentration at which net growth stops. Higher therefore signals lower sensitivity of the cells. Take `COc1ccc(NC2=C(Br)C(=O)C(C)=C(C)C2=O)cc1`: the GI50 is 2870 nM in [1]; 11.8 µM in experiment [2]; 1800 nM in [3]; 5020 nM in [4]; 14500 nM in [5]; 18800 nM in experiment [6]. Besides, the GI50 in experiment [7] is 1720 nM; in experiment [8] it was 2220 nM; in experiment [9] it was 2710 nM; in experiment [10] it was 11 µM. Moreover, the TGI in [1] was determined as 8.76 µM; in experiment [2] it was 57.5 µM; in [3], 3.39 µM; in experiment [4], 19 µM; in experiment [5] it was 28.3 µM; in experiment [6], 42.6 µM. Also, the total growth inhibition concentration (TGI) was determined as 3.13 µM in [7], 5.31 µM in experiment [8], 8.13 µM in [9] and 23.5 µM in experiment [10].

For `Cc1sc(C)c(-c2ccc(CO)o2)c1-c1ccc(CO)o1`, the GI50 in experiment [1] was 64200 nM; in experiment [2], 43 µM; in experiment [3], 77 nM; in experiment [4], greater than 83500 nM; in experiment [5], greater than 100000 nM; in [6], 124 nM. In addition, the GI50 in experiment [7] was 183 nM; in [8], 75400 nM; in [9], 316 nM; in [10], 25.4 µM. Moreover, the TGI in experiment [1] was greater than 100 µM; in experiment [2], greater than 100 µM; in experiment [3], 0.472 µM; in [4], greater than 100 µM; in experiment [5], greater than 100 µM; in experiment [6] it was greater than 100 µM. Further, the concentration for total growth inhibition (TGI) is 0.706 µM in experiment [7], greater than 100 µM in [8], greater than 100 µM in [9] and greater than 100 µM in experiment [10].

As for `Oc1ccc(Cc2ccccc2)c2cccnc12`, the GI50 is 1210 nM in [1]; greater than 100 µM in [2]; 2200 nM in [3]; 2070 nM in experiment [4]; 2960 nM in [5]; 1610 nM in experiment [6]. In addition, the GI50 in [7] is 6700 nM; in experiment [8], 2350 nM; in [9] it was 2300 nM; in [10] it was 14.7 µM. The TGI in experiment [1] was 9.53 µM; in [2] it was greater than 100 µM; in [3], 32.8 µM; in experiment [4] it was 27 µM; in experiment [5] it was 31.6 µM; in experiment [6] it was 17.3 µM. Besides, the TGI in [7] was 37.6 µM; in experiment [8], greater than 100 µM; in experiment [9], 19.2 µM; in [10], greater than 100 µM.

Take `CNc1nc(NC2CCCC2)nc(Sc2ccc(OC)cc2)n1`: the GI50 in [1] is greater than 10000 nM; in experiment [2] it was greater than 10 µM; in experiment [3], greater than 10000 nM; in experiment [4] it was greater than 10000 nM; in [5], greater than 10000 nM; in [6], greater than 10000 nM. The GI50 was greater than 10000 nM in experiment [7], greater than 10000 nM in experiment [8], greater than 10000 nM in [9] and greater than 10 µM in experiment [10]. Moreover, the TGI in [1], in [2], in experiment [3], in experiment [4], in experiment [5] and in experiment [6] was greater than 10 µM throughout. In addition, the TGI in experiment [7], in [8], in [9] and in [10] was greater than 10 µM each time.

For `Cc1noc(C)c1-c1ccc2[nH]c(=O)n3c2c1OC[C@@H]3c1ccccn1`, the GI50 in [1] is 1500 nM; in [2], 0.254 µM; in experiment [3], 965 nM; in experiment [4], greater than 27800 nM; in experiment [5], 1000 nM; in experiment [6], greater than 100000 nM. For the same compound, the GI50 in experiment [7] is 3840 nM; in experiment [8], 11000 nM; in experiment [9] it was 1260 nM; in experiment [10], 0.0166 µM. Moreover, the TGI is greater than 100 µM in [1]; greater than 31.2 µM in [2]; greater than 100 µM in experiment [3]; greater than 100 µM in [4]; greater than 100 µM in [5]; greater than 100 µM in experiment [6]. For the same compound, the TGI is greater than 100 µM in experiment [7], greater than 100 µM in experiment [8], greater than 25.3 µM in [9] and 0.171 µM in experiment [10].

Take `COc1ccccc1C(=O)c1ccc2ccccc2c1`: the TGI is greater than 100 µM in experiment [1]; 39.1 µM in experiment [2]; 53 µM in experiment [3]; 33.2 µM in experiment [4]; 42.6 µM in [5]; 84.1 µM in experiment [6]. Further, the TGI in [7] is 39.6 µM; in [8], 75.9 µM; in [9], 61 µM; in experiment [10], greater than 100 µM.

With `CN1CCN(Cc2ccc(NC(=O)c3ccc(C(C)(C)C)c(C#Cc4cnc5cccnn45)c3)cc2C(F)(F)F)CC1`, the GI50 in experiment [1] is 1990 nM; in experiment [2], 10.4 µM; in experiment [3], 2550 nM; in experiment [4], 861 nM; in experiment [5], 1780 nM; in [6], 2130 nM. Moreover, the GI50 in experiment [7] is 3550 nM; in [8], 2580 nM; in experiment [9], 1800 nM; in experiment [10], 1.59 µM. The TGI in [1] is 3.69 µM; in experiment [2] it was 39.2 µM; in experiment [3] it was 6.99 µM; in experiment [4] it was 2.38 µM; in experiment [5], 3.97 µM; in [6] it was 4.52 µM. Besides, the TGI in experiment [7] is 12.2 µM; in experiment [8] it was 5.61 µM; in experiment [9], 3.4 µM; in [10] it was 3.09 µM.

On to `COc1cc2c3c(n(CCCN4CCC(N)CC4)c(=O)c2cc1OC)-c1cc2c(cc1C3=O)OCO2`, for which the GI50 in [1] is 336 nM; in experiment [2], 1.69 µM; in experiment [3], 1700 nM; in [4], 619 nM; in experiment [5], 2090 nM; in experiment [6], 184 nM. Further, the GI50 was 765 nM in experiment [7], 368 nM in [8], 940 nM in experiment [9] and 0.89 µM in experiment [10]. Besides, the total growth inhibition concentration (TGI) came to 1.24 µM in experiment [1]; 11.7 µM in experiment [2]; 16 µM in experiment [3]; 1.59 µM in [4]; 9.89 µM in experiment [5]; 0.858 µM in experiment [6]. Moreover, the TGI in experiment [7] was 1.9 µM; in experiment [8], 1.51 µM; in experiment [9] it was 3.31 µM; in experiment [10], 5.56 µM.

As for `COc1ccc2c(-c3cc4ccccc4o3)cc(=O)oc2c1`, the TGI in [1] is greater than 100 µM; in experiment [2], 43.6 µM; in experiment [3] it was greater than 100 µM; in [4], greater than 100 µM; in experiment [5], greater than 100 µM; in experiment [6] it was greater than 100 µM. Further, the TGI is 30.4 µM in experiment [7], greater than 100 µM in experiment [8], 53.5 µM in experiment [9] and 47.6 µM in experiment [10].

For the compound `C[C@H]1CCC/C=C/[C@@H]2C[C@H](N)C[C@H]2[C@H](O)/C=C/C(=O)O1`, the GI50 in [1] is greater than 100000 nM; in [2] it was greater than 100 µM; in experiment [3] it was greater than 100000 nM; in [4], 71400 nM; in [5], 52800 nM; in experiment [6], greater than 100000 nM. The GI50 in [7] is greater than 100000 nM; in experiment [8] it was greater than 100000 nM; in experiment [9] it was greater than 100000 nM; in experiment [10], 39.9 µM. The TGI in experiment [1], in experiment [2], in experiment [3], in [4], in [5] and in experiment [6] was greater than 100 µM in each case. Moreover, the TGI in experiment [7], in experiment [8], in [9] and in experiment [10] was greater than 100 µM throughout.

With `CC(=O)n1c(-c2ccc(Cl)cc2)nc2c(c1=O)C(c1ccc(Cl)cc1)c1sc3c(Cl)cccc3c1O2` (stereo not given), the GI50 in experiment [1] was 1000 nM; in experiment [2] it was 0.396 µM; in [3], 847 nM; in experiment [4], 433 nM; in experiment [5], 669 nM; in experiment [6], 365 nM. In addition, the GI50 was 402 nM in [7], 626 nM in [8], 251 nM in experiment [9] and 0.454 µM in [10]. Moreover, the TGI in experiment [1] stood at 3.91 µM; in experiment [2], 3.23 µM; in experiment [3] it was 3.11 µM; in experiment [4], 1.78 µM; in [5], 2.5 µM; in [6], 1.39 µM. The TGI was 1.5 µM in experiment [7], 3.02 µM in [8], 0.85 µM in [9] and 5.88 µM in experiment [10].
